Assay results taken from patent US11369599B2, “Melt-extruded solid dispersions containing an apoptosis-inducing agent” (AbbVie Inc., priority 2014, dated 2022).
Read-outs that look alike come from different tables or passages of the source. One block for each compound: values may come before it.

Columns and labels:
[1] = First-in-human Phase 1 study (safety, PK) in relapsed or refractory CLL; assay type: in vivo; details: for AUC(0-inf): read-out: AUC (AUCINF)
Experimental: Three subjects were enrolled in the first cohort of CLL arm.
Subject 1: bulky disease, initial dose=200 mg
Subject 2: non-bulky disease, initial dose=200 mg
Subject 3: bulky disease, initial dose=100 mg
The dosing scheme for CLL arm was as follows: single dose on Week 1 Day −3; QD dose started on Week 1 Day 1. PK sampling was done on Week 1 Day −3 and Week 3 Day 1.

[2] = target: Bcl-2 protein (Homo sapiens (Human), UniProt P10415); experiment: TR-FRET (Time-Resolved Fluorescence-Resonance-Energy-Transfer) Bcl-2 binding assay
Excerpt: The smaller the Ki value, the greater is the binding affinity.

[3] = log D at pH 7.4 by an HPLC method; assay type: physicochemical
[4] = human CLL, Week 1 Day-3 single dose, Mean of 3 subjects
[5] = human CLL, Week 1 Day-3 single dose, Subject 1, 200 mg
[6] = human CLL, Week 1 Day-3 single dose, Subject 2, 200 mg
[7] = human CLL, Week 1 Day-3 single dose, Subject 3, 100 mg
[8] = human CLL, Week 3 Day 1, QD dosing, ID 101, 150 mg
[9] = human, plasma, oral, 100 mg, human CLL, Week 1 Day-3 single dose, Subject 3, 100 mg
[10] = human, plasma, oral, 200 mg, human CLL, Week 1 Day-3 single dose, Subject 1, 200 mg
[11] = human, plasma, oral, 200 mg, human CLL, Week 1 Day-3 single dose, Subject 2, 200 mg

Chain of Bcl-2 protein (P10415 whole entry): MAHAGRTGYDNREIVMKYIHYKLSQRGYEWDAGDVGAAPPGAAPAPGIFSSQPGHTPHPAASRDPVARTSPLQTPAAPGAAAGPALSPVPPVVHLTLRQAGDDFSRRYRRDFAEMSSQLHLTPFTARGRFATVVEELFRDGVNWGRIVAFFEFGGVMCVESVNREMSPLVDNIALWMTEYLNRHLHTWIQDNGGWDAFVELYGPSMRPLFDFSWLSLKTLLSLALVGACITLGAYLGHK

SMILES: CC1(C)CCC(CN2CCN(c3ccc(C(=O)NS(=O)(=O)c4ccc(NCC5CCOCC5)c([N+](=O)[O-])c4)c(Oc4cnc5[nH]ccc5c4)c3)CC2)=C(c2ccc(Cl)cc2)C1 [Compound 5, 4-(4-{[2-(4-chlorophenyl)-4,4-dimethylcyclohex-1-en-1-yl]methyl}piperazin-1-yl)-N-({3-nitro-4-[(tetrahydro-2H-pyran-4-ylmethyl)amino]phenyl}sulfonyl)-2-(1H-pyrrolo[2,3-b]pyridin-5-yloxy)benzamide]
CL/F [1, 4]: 4.7 L/h
Cmax/Dose [1, 4]: 0.008 (μg/mL)/mg
CL/F [1, 5]: 8.6 L/h
Cmax/Dose [1, 5]: 0.0037 (μg/mL)/mg
Tmax ([1]; human CLL, Week 1 Day-3 single dose, Subject 1, 200 mg, 50 mg tablets): 6 h
CL/F [1, 6]: 2.6 L/h
Cmax/Dose [1, 6]: 0.0079 (μg/mL)/mg
CL/F [1, 7]: 2.8 L/h
Cmax/Dose [1, 7]: 0.0119 (μg/mL)/mg
CL/F [1, 8]: 7.1 L/h
Cmax/Dose [1, 8]: 0.0089 (μg/mL)/mg
Tmax [1, 8]: 8 h
time to reach Cmax ([1]; human subjects): around 7 hours
predicted AUC ([1]; human, 200 mg dose, predicted): 30000 ng·h/mL
observed AUC versus predicted AUC ([1]; human, normalized to 200 mg dose): about 2 fold
Cmax [1, 9]: 1190 ng/mL
AUC(0-inf) [1, 9]: 36300 ng·h/mL
half-life ([1]; human, plasma, oral, 100 mg, human CLL, Week 1 Day-3 single dose, Subject 3, 100 mg, read-out: t1/2 (converted)): 22.1 h
Cmax ([1]; human, plasma, oral, 150 mg, human CLL, Week 3 Day 1, QD dosing, ID 101, 150 mg): 1340 ng/mL
AUC ([1]; human, plasma, oral, 150 mg, read-out: AUC (AUCss,24)): 21100 ng·h/mL
Cmax [1, 10]: 730 ng/mL
AUC(0-inf) [1, 10]: 23300 ng·h/mL
half-life ([1]; human, plasma, oral, 200 mg, human CLL, Week 1 Day-3 single dose, Subject 1, 200 mg, read-out: t1/2 (converted)): 30.6 h
Cmax [1, 11]: 1570 ng/mL
AUC(0-inf) [1, 11]: 76000 ng·h/mL
half-life ([1]; human, plasma, oral, 200 mg, human CLL, Week 1 Day-3 single dose, Subject 2, 200 mg, read-out: t1/2 (converted)): 50.9 h
half-life ([1]; human, plasma, oral, human CLL, Week 1 Day-3 single dose, Harmonic Mean of 3 subjects, read-out: t1/2 (converted)): 30.7 h
half-life ([1]; human, plasma, oral, human subjects, observed, read-out: terminal elimination half-life (converted)): 31 h
clearance, predicted value ([1]; human, predicted): 10 L/h
terminal elimination half-life, predicted value ([1]; human, predicted): 15 h
Tmax ([1]; plasma, oral, human CLL, Week 1 Day-3 single dose, Mean of 3 subjects, read-out: Tmax): 7.3 h
clearance ([1]; plasma, oral, human subjects, observed): 78.3 mL/min
adverse event after the first dose ([1]; three CLL subjects, first cohort, initial dose 100-200 mg, 50 mg tablet form, all subjects): tumor lysis syndrome

Ki [2]: 0.19 nM
SMILES: COCCON1C=C(Cl)C=C(S(=O)(=O)NC(=O)c2ccc(N3CCN(CC4=C(c5ccc(Cl)cc5)CC(C)(C)CC4)CC3)cc2Oc2cnc3[nH]ccc3c2)C1 [Compound 292, N-{[5-chloro-1-(2-methoxyethoxy)pyridin-3-yl]sulfonyl}-4-(4-{[2-(4-chlorophenyl)-4,4-dimethylcyclohex-1-en-1-yl]methyl}piperazin-1-yl)-2-(1H-pyrrolo[2,3-b]pyridin-5-yloxy)benzamide]

log D [3]: 5.48
SMILES: CC1(C)CCC(CN2CCN(c3ccc(C(=O)NS(=O)(=O)c4ccc(NCC5CCC(C)(O)CC5)c([N+](=O)[O-])c4)c(Oc4cnc5[nH]ccc5c4)c3)CC2)=C(c2ccc(Cl)cc2)C1 (stereo not drawn) [Compound 337, 4-(4-{[2-(4-chlorophenyl)-4,4-dimethylcyclohex-1-en-1-yl]methyl}piperazin-1-yl)-N-[(4-{[(trans-4-hydroxy-4-methylcyclohexyl)methyl]amino}-3-nitrophenyl)sulfonyl]-2-(1H-pyrrolo[2,3-b]pyridin-5-yloxy)benzamide]

log D [3]: 5.67
SMILES: CC1(C)CCC(CN2CCN(c3ccc(C(=O)NS(=O)(=O)c4ccc(NCC5CCC(C)(O)CC5)c([N+](=O)[O-])c4)c(Oc4cnc5[nH]ccc5c4)c3)CC2)=C(c2ccc(Cl)cc2)C1 (stereo not drawn) [Compound 338, 4-(4-{[2-(4-chlorophenyl)-4,4-dimethylcyclohex-1-en-1-yl]methyl}piperazin-1-yl)-N-[(4-{[(cis-4-hydroxy-4-methylcyclohexyl)methyl]amino}-3-nitrophenyl)sulfonyl]-2-(1H-pyrrolo[2,3-b]pyridin-5-yloxy)benzamide]

SMILES: CC1(O)CCC(COc2ncc(S(=O)(=O)NC(=O)c3ccc(N4CCN(CC5=C(c6ccc(Cl)cc6)CC6(CC5)CC6)CC4)cc3Oc3cnc4[nH]ccc4c3)cc2Cl)CC1 (stereo not drawn) [Compound 341, N-({5-chloro-6-[(trans-4-hydroxy-4-methylcyclohexyl)methoxy]pyridin-3-yl}sulfonyl)-4-(4-{[5-(4-chlorophenyl)spiro[2.5]oct-5-en-6-yl]methyl}piperazin-1-yl)-2-(1H-pyrrolo[2,3-b]pyridin-5-yloxy)benzamide]
Ki [2]: < 0.01 nM

SMILES: CC1(C)CCC(CN2CCN(c3ccc(C(=O)NS(=O)(=O)c4cnc(OCC5(F)CCC(O)CC5)c(Cl)c4)c(Oc4cnc5[nH]ccc5c4)c3)CC2)=C(c2ccc(Cl)cc2)C1 (stereo not drawn) [Compound 350, N-({5-chloro-6-[(cis-1-fluoro-4-hydroxycyclohexyl)methoxy]pyridin-3-yl}sulfonyl)-4-(4-{[2-(4-chlorophenyl)-4,4-dimethylcyclohex-1-en-1-yl]methyl}piperazin-1-yl)-2-(1H-pyrrolo[2,3-b]pyridin-5-yloxy)benzamide]
Ki [2]: < 0.01 nM

SMILES: CC1(C)CCC(CN2CCN(c3ccc(C(=O)NS(=O)(=O)c4ccc(OCC5CCC(C)(O)CC5)c(Cl)c4)c(Oc4cnc5[nH]ccc5c4)c3)CC2)=C(c2ccc(Cl)cc2)C1 (stereo not drawn) [Compound 362, N-({3-chloro-4-[(trans-4-hydroxy-4-methylcyclohexyl)methoxy]phenyl}sulfonyl)-4-(4-{[2-(4-chlorophenyl)-4,4-dimethylcyclohex-1-en-1-yl]methyl}piperazin-1-yl)-2-(1H-pyrrolo[2,3-b]pyridin-5-yloxy)benzamide]
Ki [2]: 0.016 nM

SMILES: CC1(C)CCC(CN2CCN(c3ccc(C(=O)NS(=O)(=O)c4cnc(NCC5CCC(C)(O)CC5)c([N+](=O)[O-])c4)c(Oc4cnc5[nH]ccc5c4)c3)CC2)=C(c2ccc(Cl)cc2)C1 (stereo not drawn) [Compound 371, 4-(4-{[2-(4-chlorophenyl)-4,4-dimethylcyclohex-1-en-1-yl]methyl}piperazin-1-yl)-N-[(6-{[(trans-4-hydroxy-4-methylcyclohexyl)methyl]amino}-5-nitropyridin-3-yl)sulfonyl]-2-(1H-pyrrolo[2,3-b]pyridin-5-yloxy)benzamide]
Ki [2]: < 0.001 nM

SMILES: CC1(C)CCC(CN2CCN(c3ccc(C(=O)NS(=O)(=O)c4cnc(NCC5CCC(C)(O)CC5)c([N+](=O)[O-])c4)c(Oc4cnc5[nH]ccc5c4)c3)CC2)=C(c2ccc(Cl)cc2)C1 (stereo not drawn) [Compound 376, 4-(4-{[2-(4-chlorophenyl)-4,4-dimethylcyclohex-1-en-1-yl]methyl}piperazin-1-yl)-N-[(6-{[(cis-4-hydroxy-4-methylcyclohexyl)methyl]amino}-5-nitropyridin-3-yl)sulfonyl]-2-(1H-pyrrolo[2,3-b]pyridin-5-yloxy)benzamide]
Ki [2]: < 0.001 nM

SMILES: COC1(C)CCC(c2ccc(Cl)cc2)=C(CN2CCN(c3ccc(C(=O)NS(=O)(=O)c4ccc(NCC5CCC(C)(O)CC5)c([N+](=O)[O-])c4)c(Oc4cnc5[nH]ccc5c4)c3)CC2)C1 (stereo not drawn) [Compound 377, 4-(4-{[2-(4-chlorophenyl)-5-methoxy-5-methylcyclohex-1-en-1-yl]methyl}piperazin-1-yl)-N-[(4-{[(trans-4-hydroxy-4-methylcyclohexyl)methyl]amino}-3-nitrophenyl)sulfonyl]-2-(1H-pyrrolo[2,3-b]pyridin-5-yloxy)benzamide]
Ki [2]: < 0.001 nM
